We go through 14 compounds from patent US20220119383A1 (Gilead Sciences, Inc., priority 2018, published 2022).

The target in the first assay is T1, α4β7 integrin (Homo sapiens, UniProt P13612+P26010).
T1 construct: monitoring the capture of α4β7 integrin expressing cells; endogenous in cells; host or cells: RPMI8866 cells
T1 sequence (P13612 34-1032): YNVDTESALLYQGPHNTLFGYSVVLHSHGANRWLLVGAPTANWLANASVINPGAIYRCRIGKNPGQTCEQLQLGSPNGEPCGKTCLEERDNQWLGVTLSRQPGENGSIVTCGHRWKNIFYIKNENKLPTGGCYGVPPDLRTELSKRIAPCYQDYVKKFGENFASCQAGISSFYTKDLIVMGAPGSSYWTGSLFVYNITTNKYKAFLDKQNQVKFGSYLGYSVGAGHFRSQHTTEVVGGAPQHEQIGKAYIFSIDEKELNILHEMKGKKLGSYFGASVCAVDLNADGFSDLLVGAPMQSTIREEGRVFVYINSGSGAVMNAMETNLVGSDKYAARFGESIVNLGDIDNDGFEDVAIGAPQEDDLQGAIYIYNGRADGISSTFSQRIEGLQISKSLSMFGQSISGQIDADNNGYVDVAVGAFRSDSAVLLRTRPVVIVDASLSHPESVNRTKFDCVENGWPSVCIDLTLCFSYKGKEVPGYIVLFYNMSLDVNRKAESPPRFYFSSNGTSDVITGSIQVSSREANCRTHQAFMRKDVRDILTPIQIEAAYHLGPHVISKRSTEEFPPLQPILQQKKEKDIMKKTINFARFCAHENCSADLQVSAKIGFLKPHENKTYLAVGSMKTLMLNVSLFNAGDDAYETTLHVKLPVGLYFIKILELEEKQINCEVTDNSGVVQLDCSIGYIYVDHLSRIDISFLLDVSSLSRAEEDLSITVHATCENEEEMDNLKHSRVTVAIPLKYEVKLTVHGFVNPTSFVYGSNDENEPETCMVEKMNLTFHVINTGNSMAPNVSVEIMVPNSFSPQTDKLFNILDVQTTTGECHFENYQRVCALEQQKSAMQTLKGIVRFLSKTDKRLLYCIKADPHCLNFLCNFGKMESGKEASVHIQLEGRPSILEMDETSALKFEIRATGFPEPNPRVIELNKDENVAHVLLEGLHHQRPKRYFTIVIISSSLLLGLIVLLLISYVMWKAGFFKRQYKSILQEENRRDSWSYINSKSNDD
T1 sequence (P26010 20-798): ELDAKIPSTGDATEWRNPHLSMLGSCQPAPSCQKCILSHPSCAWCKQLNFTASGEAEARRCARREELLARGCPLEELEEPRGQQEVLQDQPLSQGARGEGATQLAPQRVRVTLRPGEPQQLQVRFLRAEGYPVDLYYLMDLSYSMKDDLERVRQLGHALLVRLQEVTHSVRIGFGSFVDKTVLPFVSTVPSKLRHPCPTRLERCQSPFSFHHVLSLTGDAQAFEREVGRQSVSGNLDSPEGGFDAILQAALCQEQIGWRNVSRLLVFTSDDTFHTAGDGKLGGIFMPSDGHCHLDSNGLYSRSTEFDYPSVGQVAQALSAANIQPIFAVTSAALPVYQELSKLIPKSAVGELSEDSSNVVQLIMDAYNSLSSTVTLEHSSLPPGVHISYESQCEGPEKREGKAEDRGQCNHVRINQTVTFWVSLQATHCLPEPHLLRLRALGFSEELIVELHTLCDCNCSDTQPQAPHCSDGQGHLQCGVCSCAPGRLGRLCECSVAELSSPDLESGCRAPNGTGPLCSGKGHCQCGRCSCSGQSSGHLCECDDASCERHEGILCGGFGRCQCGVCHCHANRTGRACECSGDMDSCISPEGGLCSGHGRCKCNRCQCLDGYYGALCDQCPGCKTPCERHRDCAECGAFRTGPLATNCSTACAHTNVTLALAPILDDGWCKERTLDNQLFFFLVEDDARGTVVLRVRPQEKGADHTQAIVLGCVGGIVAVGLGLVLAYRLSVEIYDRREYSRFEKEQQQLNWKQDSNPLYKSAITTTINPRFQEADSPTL
In words: α4β7 integrin cell capture assay. The format is cell-based. As to conditions: Table 1; capture of RPM18866 cells on MadCAM-1 extracellular domain-coated plate. As to the method:
The potency of inhibitors in preventing α4β7 integrin interaction with MadCAM-1 was measured by monitoring the capture of α4β7 integrin expressing cells on a recombinant MadCAM-1 extracellular domain-coated plate. […] The plates were then washed with PBS and blocked with 3% BSA for 2 hours before being washed again.
RPM18866 cells were spun down and re-suspended in assay medium (DMEM+0.5% FBS+0.5 mM MnCl2) at a density of 0.5×10^6 cells/mL. […] The plates were incubated at 37° C. for 1 hour. 50 μL of cells were transferred to the blocked, MadCAM-1-coated plates and incubated for 30 minutes at 37° C. […] The plates were incubated for 90 minutes at room temperature. The plates were then washed 3 times with 70 μL of PBS per well and imaged on a Cellomics ArrayScan instrument. The cells that were bound to the plate were counted and plotted against the compound concentration to determine the EC50 of the test compounds.
Usually EC50 stands for the concentration needed to bring the measured effect to its halfway point. Read a high EC50 as weaker potency. The compound `O=C(N[C@@H](Cc1ccc(-c2cccc3c2OCCO3)c2ncccc12)C(=O)O)c1c(F)cc(NS(=O)(=O)c2ccc(-c3ccnc(F)c3)cc2)cc1F` [Example 51] returned an EC50 of 2.9 nM.
In the case of “2,6-difluoro-4-(3-(trifluoromethyl)morpholino)benzoic acid [Example 81]”, the half-maximal effective concentration (EC50) stood at 6 nM.
Same read-out and setting: for `N#Cc1ccc(-c2ccc(C[C@H](NC(=O)c3c(F)cc(N4CCOC[C@@H]4C(F)(F)F)cc3F)C(=O)O)c3cccnc23)c(Cl)c1` (single isomer, unassigned) [Example 82] the value was 4.7 nM; for `N#Cc1ccc(-c2ccc(C[C@H](NC(=O)c3c(F)cc(N4CCOC[C@H]4C(F)(F)F)cc3F)C(=O)O)c3cccnc23)c(Cl)c1` (single isomer, unassigned) [Example 83], 32.9 nM.
Still for that read-out and setting: then `CC[C@@H](Nc1cc(F)c(C(=O)N[C@@H](Cc2ccc(-c3cn(C)c(=O)n(C)c3=O)c3ncccc23)C(=O)O)c(F)c1)C(F)(F)F` [Example 113, (S)-2-(2,6-difluoro-4-(((R)-1,1,1-trifluorobutan-2-yl)amino)benzamido)-3-(8-(1,3-dimethyl-2,4-dioxo-1,2,3,4-tetrahydropyrimidin-5-yl)quinolin-5-yl)propanoic acid], with 1.2 nM; and `O=C(N[C@@H](Cc1ccc(-c2ncc3ccccc3c2Cl)c2ncccc12)C(=O)O)c1c(F)cccc1F` [Example 66, (S)-3-(8-(4-chloroisoquinolin-3-yl)quinolin-5-yl)-2-(2,6-difluorobenzamido)propanoic acid], with 18.9 nM; and `COc1cc(F)cc(C(F)(F)F)c1-c1ccc(C[C@H](NC(=O)c2c(F)cccc2F)C(=O)O)c2cccnc12` (single isomer, unassigned) [Example 7], with 1.9 nM.
Consider “(S)-3-(8-(2-chloro-4-cyanophenyl)quinolin-5-yl)-2-(2,6-difluoro-4-((R)-3-(trifluoromethyl)morpholino)benzamido)propanoic acid [Example 148]”, for which it took 60.6 nM to reach a half-maximal effect (EC50).
Same read-out and setting: then `N#Cc1ccc(-c2ccc(C[C@H](NC(=O)c3c(F)cc(NC(C4CC4)C(F)(F)F)cc3F)C(=O)O)c3cccnc23)c(Cl)c1` (some centres unmarked) [Example 89], with 14.4 nM; and `CC[C@@H](Nc1cc(F)c(C(=O)N[C@@H](Cc2ccc(-c3c(C(F)(F)F)c4cc(F)ccc4n(C)c3=O)c3ncccc23)C(=O)O)c(F)c1)C(F)(F)F` [Example 124], with 0.6 nM; and `COc1cc(F)cc(C(F)(F)F)c1-c1ccc(C[C@H](NC(=O)c2c(F)cccc2F)C(=O)O)c2cccnc12` (single isomer, unassigned) [Example 8], with 41.4 nM.

Staying with this assay, now noted: Table 2; capture of RPM18866 cells on MadCAM-1 extracellular domain-coated plate.
`Cc1c(-c2ccc(C[C@H](NC(=O)c3c(F)cc(N[C@H](C)C(F)(F)F)cc3F)C(=O)O)c3cccnc23)c(=O)n(C)c2ccc(F)cc12` (atropisomer, axis not shown) [Example 187] came in with an EC50 of 1.1 nM.
The same measure, in the same setting: for `CC[C@@H](Nc1cc(F)c(C(=O)N[C@@H](Cc2ccc(-c3c(N4CCC4)cc(C)n(C)c3=O)c3ncccc23)C(=O)O)c(F)c1)C(F)(F)F` [Example 184] the value was 0.9 nM.

The same assay, now with this note: capture of α4β7 integrin expressing RPM18866 cells on MadCAM-1 extracellular domain-coated plate.
The compound `Cc1cc(N2CCOC[C@@H]2C(F)(F)F)cc(F)c1C(=O)N[C@@H](Cc1ccc(-n2c(=O)c3cccnc3n(C)c2=O)c2ncccc12)C(=O)O` [Example 402] showed an EC50 of 0.1 nM.
